From patent publication US20230013669A1, “Antibacterial Treatment Using a Cannabinoid and an Active Agent” (priority 2019, published 2023)
Where “and” joins values, the source holds several entries; their conditions need not be identical. Identical values can stand only once. Like-named read-outs stand apart in the source and are kept apart here.

Columns and labels:
[1] = test system: Pseudomonas aeruginosa ATCC 27853 (GN_042); experiment: Synergy of cannabidiol with cell-wall disrupting agent (CBD MIC in combination, FICI); format: cell-based; conditions: for FICI: calculated using MIC of 256 μg/mL for cannabidiol; for MIC: Pseudomonas aeruginosa
Method: (§1) The compounds were stored short term at 4° C.
(§2) Analysis was performed using Microsoft Excel.

[2] = test system: Pseudomonas aeruginosa FADDI-PA067 (GN_177), Polymyxin resistant; experiment: as above; format: cell-based; conditions: for MIC: Pseudomonas aeruginosa
Method: as §1, §2

In the case of C=C(C)C1CCC(C)=CC1c1c(O)cc(CCCCC)cc1O (stereo not shown) [Cannabidiol, 2-[3-methyl-6-(1-methylethenyl)-2-cyclohexen-1-yl]-5-pentyl-1,3-benzenediol], the “CBD MIC with Ceftazidime” value ([1]; Ceftazidime at 0.25 μg/mL (Table 66), Pseudomonas aeruginosa ATCC 27853) is reported as >32 µg/mL, the “CBD MIC with Ceftazidime” value ([1]; Ceftazidime at 0.25 μg/mL as headed in Table 64, Pseudomonas aeruginosa ATCC 27853) is reported as 0.001 µg/mL and the “CBD MIC with Ceftazidime” value ([1]; Ceftazidime at 0.5 μg/mL (Table 66), Pseudomonas aeruginosa ATCC 27853) is reported as >32 µg/mL. For the same compound, the “CBD MIC with Ceftazidime” value ([1]; Ceftazidime at 0.5 μg/mL as headed in Table 64, Pseudomonas aeruginosa ATCC 27853) was 0.001 µg/mL, the “CBD MIC with Ceftazidime” value ([1]; Ceftazidime at 1 μg/mL (Table 66), Pseudomonas aeruginosa ATCC 27853) was >32 µg/mL and the “CBD MIC with Ceftazidime” value ([1]; Ceftazidime at 2 μg/mL (Table 66), Pseudomonas aeruginosa ATCC 27853) was 0.001 µg/mL. For the same compound, the “CBD MIC with Ceftazidime” value ([1]; Ceftazidime at 4 μg/mL (Table 66), Pseudomonas aeruginosa ATCC 27853) was 0.001 µg/mL, the “CBD MIC with Ceftazidime” value ([1]; Ceftazidime at […] (Table 66), Pseudomonas aeruginosa ATCC 27853) was >32 µg/mL and the “CBD MIC with Colistin” value ([1]; Colistin at 1 μg/mL, Pseudomonas aeruginosa ATCC 27853) was 0.001 µg/mL. For the same compound, the “activity of cannabidiol in combination with Polymyxin B” value ([1]; Example 1) was “effective”, the “Average FICI score” value ([1]; Example 1, GN_042, cannabidiol + MCC_006636 (Polymyxin B)) was 0.265 and the Synergy ([1]; Example 1, GN_042, cannabidiol + MCC_006636 (Polymyxin B), synergy when FICI≤0.5) was “YES”. For the same compound, the “activity of cannabidiol combined with Polymyxin B” value ([1]; Example 6) was “effective”, the “CBD MIC with Polymyxin B at concentration 0.015625 μg/mL” value ([1]; Example 6, GN_042) was >256 µg/mL and the “CBD MIC with Polymyxin B at concentration 0.03125 μg/mL” value ([1]; Example 6, GN_042) was >256 µg/mL. The “CBD MIC with Polymyxin B at concentration 0.0625 μg/mL” value ([1]; Example 6, GN_042) was >256 µg/mL, the “CBD MIC with Polymyxin B at concentration 0.25 μg/mL” value ([1]; Example 6, GN_042) was >256 µg/mL and the “CBD MIC with Polymyxin B at concentration […]” value ([1]; Example 6, GN_042) was >256 µg/mL. The “CBD MIC with Polymyxin B at concentration 0.5 μg/mL” value ([1]; Example 6, GN_042, listed as CBD) was 2 µg/mL and 4 µg/mL, the “activity of cannabidiol combined with ticarcillin” value ([1]; Example 13) was “effective” and the “activity of cannabidiol combined with ceftazidime” value ([1]; Example 16) was “effective”. For the same compound, the “activity of cannabidiol combined with aztreonam” value ([1]; Example 18) was “effective”, the “activity of cannabidiol combined with octapeptin C4” value ([1]; Example 21) was “effective” and the “activity of cannabidiol in combination with MCC_8980” value ([1]; Example 24) was “effective”. For the same compound, the FICI range ([1]; Pseudomonas aeruginosa ATCC 27853, CBD with FADDI-287, MIC table (Table 95), listed as CBD) was 0.53-4 and 0.56-4, the FICI range ([1]; Pseudomonas aeruginosa ATCC 27853, CBD with FADDI-287, Synergy table (Table 97)) was “No Synergy” and the FICI range ([1]; Pseudomonas aeruginosa ATCC 27853, CBD with MCC_8980, MIC table (Table 99), listed as CBD) was 0.16-1.06 and 0.19-1.06. The FICI range ([1]; Pseudomonas aeruginosa ATCC 27853, CBD with MCC_8980, Synergy table (Table 101), listed as CBD) was 0.16-0.25 and 0.19-0.26, the FICI range ([1]; Pseudomonas aeruginosa ATCC 27853, CBD with Spero Potentiator SPR741, MIC table (Table 91)) was 1.01-1.25 and the FICI range ([1]; Pseudomonas aeruginosa ATCC 27853, CBD with Spero Potentiator SPR741, Synergy table (Table 93)) was “No Synergy”. For the same compound, the FICI range ([1]; Pseudomonas aeruginosa ATCC 27853, CBD with Spero SPR206, Synergy table) was “No Synergy”, the “CBD MIC with FADDI-287” value ([1]; Pseudomonas aeruginosa ATCC 27853, FADDI-287 at 0.5 μg/mL, listed as CBD) was 16 µg/mL and the “CBD MIC with MCC_8980” value ([1]; Pseudomonas aeruginosa ATCC 27853, MCC_8980 at 8 μg/mL, listed as CBD) was 16 µg/mL. The “CBD MIC with MCC_8980” value ([1]; Pseudomonas aeruginosa ATCC 27853, MCC_8980 at 16 μg/mL, listed as CBD) was 2 µg/mL, the FICI ([1]; Pseudomonas aeruginosa ATCC 27853, cannabidiol with FADDI-287 at 0.25 μg/mL) was 1.25 and the FICI ([1]; Pseudomonas aeruginosa ATCC 27853, cannabidiol with FADDI-287 at 0.5 μg/mL) was 0.5312 and 0.5625. The FICI ([1]; Pseudomonas aeruginosa ATCC 27853, cannabidiol with FADDI-287 at 1 μg/mL) was 1, the FICI ([1]; Pseudomonas aeruginosa ATCC 27853, cannabidiol with FADDI-287 at 2 μg/mL) was 2 and the FICI ([1]; Pseudomonas aeruginosa ATCC 27853, cannabidiol with FADDI-287 at 4 μg/mL) was 4. For the same compound, the FICI ([1]; Pseudomonas aeruginosa ATCC 27853, cannabidiol with MCC_8980 at 0.5 μg/mL) was 1.008, the FICI ([1]; Pseudomonas aeruginosa ATCC 27853, cannabidiol with MCC_8980 at 1 μg/mL) was 1.016 and the FICI ([1]; Pseudomonas aeruginosa ATCC 27853, cannabidiol with MCC_8980 at 4 μg/mL) was 1.0625. For the same compound, the FICI ([1]; Pseudomonas aeruginosa ATCC 27853, cannabidiol with MCC_8980 at 8 μg/mL) was 0.1562 and 0.1875, the FICI ([1]; Pseudomonas aeruginosa ATCC 27853, cannabidiol with MCC_8980 at 16 μg/mL) was 0.2539 and 0.2578 and the FICI ([1]; Pseudomonas aeruginosa ATCC 27853, cannabidiol with SPR741 at 0.5 μg/mL) was 1.008. The FICI ([1]; Pseudomonas aeruginosa ATCC 27853, cannabidiol with SPR741 at 1 μg/mL) was 1.016, the FICI ([1]; Pseudomonas aeruginosa ATCC 27853, cannabidiol with SPR741 at 4 μg/mL) was 1.0625 and the FICI ([1]; Pseudomonas aeruginosa ATCC 27853, cannabidiol with SPR741 at 16 μg/mL) was 1.25. It also gave an MIC ([1]; ATCC27853, MCC_6442 at 4 μg/mL, Pseudomonas aeruginosa ATCC 27853, read-out: CBD MIC with MCC_6442) of 0.001 µg/mL, an MIC ([1]; ATCC27853, Octapeptin C4 at 4 μg/mL, read-out: CBD MIC with Octapeptin C4) of 0.001 µg/mL and an MIC ([1]; ATCC27853, Pseudomonas aeruginosa ATCC 27853, FADDI-287 at 0.5 μg/mL, read-out: CBD MIC with FADDI-287) of 8 µg/mL. For the same compound, the MIC ([1]; ATCC27853, Pseudomonas aeruginosa ATCC 27853, FADDI-287 at 1 μg/mL, read-out: CBD MIC with FADDI-287) was 0.001 µg/mL, the MIC ([1]; ATCC27853, Pseudomonas aeruginosa ATCC 27853, FADDI-287 at 2 μg/mL, read-out: CBD MIC with FADDI-287) was 0.001 µg/mL and the MIC ([1]; ATCC27853, Pseudomonas aeruginosa ATCC 27853, FADDI-287 at 4 μg/mL, read-out: CBD MIC with FADDI-287) was 0.001 µg/mL. For the same compound, the MIC ([1]; ATCC27853, Pseudomonas aeruginosa ATCC 27853, MCC_8980 at 8 μg/mL, read-out: CBD MIC with MCC_8980) was 8 µg/mL, the MIC ([1]; ATCC27853, Pseudomonas aeruginosa ATCC 27853, MCC_8980 at 16 μg/mL, read-out: CBD MIC with MCC_8980) was 1 µg/mL and the MIC ([1]; ATCC27853, Spero SPR206 at 0.25 μg/mL, 1st of 3 experiments, read-out: CBD MIC with Spero SPR206) was > 256 µg/mL. For the same compound, the MIC ([1]; ATCC27853, Spero SPR206 at 0.25 μg/mL, 3rd of 3 experiments, read-out: CBD MIC with Spero SPR206) was > 256 µg/mL, the MIC ([1]; ATCC27853, Spero SPR206 at 0.5 μg/mL, 1st of 3 experiments, read-out: CBD MIC with Spero SPR206) was > 256 µg/mL and the MIC ([1]; ATCC27853, Spero SPR206 at 0.5 μg/mL, 3rd of 3 experiments, read-out: CBD MIC with Spero SPR206) was > 256 µg/mL. For the same compound, the MIC ([1]; ATCC27853, Spero SPR206 at 1 μg/mL, 1st of 3 experiments, read-out: CBD MIC with Spero SPR206) was 0.001 µg/mL, the MIC ([1]; ATCC27853, Spero SPR206 at 1 μg/mL, 3rd of 3 experiments, read-out: CBD MIC with Spero SPR206) was > 256 µg/mL and the MIC ([1]; ATCC27853, Spero SPR206 at 2 μg/mL, 1st of 3 experiments, read-out: CBD MIC with Spero SPR206) was 0.001 µg/mL. For the same compound, the MIC ([1]; ATCC27853, Spero SPR206 at 2 μg/mL, 3rd of 3 experiments, read-out: CBD MIC with Spero SPR206) was > 256 µg/mL, the MIC ([1]; ATCC27853, Spero SPR206 at 4 μg/mL, 1st of 3 experiments, read-out: CBD MIC with Spero SPR206) was 0.001 µg/mL and the MIC ([1]; ATCC27853, Spero SPR206 at 4 μg/mL, 3rd of 3 experiments, read-out: CBD MIC with Spero SPR206) was > 256 µg/mL. The “CBD MIC with Ticarcillin” value ([1]; Ticarcillin at 16 μg/mL, Pseudomonas aeruginosa ATCC 27853) was 0.001 µg/mL, the “CBD MIC with Ticarcillin” value ([1]; Ticarcillin at 32 μg/mL, Pseudomonas aeruginosa ATCC 27853) was 0.001 µg/mL and the “CBD MIC with Ticarcillin” value ([1]; Ticarcillin at 64 μg/mL, Pseudomonas aeruginosa ATCC 27853) was 0.001 µg/mL. The “cannabidiol combined with Polymyxin B: synergy” value ([2]; Example 8) was “synergy”, the MIC ([2]; read-out: CBD MIC with MCC_00636 at concentration 0.015625 μg/mL) was > 256 µg/mL and the MIC ([2]; read-out: CBD MIC with MCC_00636 at concentration 0.03125 μg/mL) was > 256 µg/mL. For the same compound, the MIC ([2]; read-out: CBD MIC with MCC_00636 at concentration 0.0625 μg/mL) was > 256 µg/mL, the MIC ([2]; read-out: CBD MIC with MCC_00636 at concentration 0.25 μg/mL) was > 256 µg/mL and the MIC ([2]; read-out: CBD MIC with MCC_00636 at concentration 0.5 μg/mL) was 4 µg/mL. The MIC ([2]; read-out: CBD MIC with MCC_00636 at concentration 1 μg/mL) was 0.5 µg/mL, the MIC ([2]; read-out: CBD MIC with MCC_00636 at concentration 2 μg/mL) was 0.000977 µg/mL and the MIC ([2]; read-out: CBD MIC with MCC_00636 at concentration 4 μg/mL) was 0.000977 µg/mL. For the same compound, the MIC ([2]; read-out: CBD MIC with MCC_00636 at concentration […]) was > 256 µg/mL.
